This is an account of results in patent US4918067A, “Heterocyclic substituted penicillin antibiotics” (Beecham Group p.l.c., priority 1986, dated 1990).

Common to all, as to format: cell-based
Assay [1] has as its system S. aureus Oxford. The assay is described as follows: in vitro MIC against S. aureus Oxford. The note with it: Staphylococcus aureus. The procedure: (§1) The compound of the Example was tested in vitro against a number of microorganisms.
For assay [2], the system named is S. aureus MB9. The experiment in a line: in vitro MIC against S. aureus MB9. The following applies: Staphylococcus aureus. The method, then: as §1
Assay [3] has as its system S. epidermidis PHLN20. The experiment in a line: in vitro MIC against S. epidermidis PHLN20. The note with it: Staphylococcus epidermidis. The method, then:
as §1

Assay [4] concerns E. Coli ESS. The assay is described as follows: in vitro MIC against E. Coli ESS. The note with it: Escherichia coli. The procedure: as §1
In assay [5] the test system is S. pneumoniae 1761. The assay is described as follows: in vitro MIC against S. pneumoniae 1761. The following applies: Streptococcus pneumoniae. The method, then: as §1
The subject of assay [6] is H. influenzae NEMCl. The assay is described as follows: in vitro MIC against H. influenzae NEMCl. The note with it: Haemophilus influenzae. The method, then:
as §1

Assay [7] concerns S. pyogenes CN10. The experiment in a line: in vitro MIC against S. pyogenes CN10. The note with it: Streptococcus pyogenes. The method, then:
as §1

The subject of assay [8] is B. catarrhalis Ravasio. The experiment in a line: in vitro MIC against B. catarrhalis Ravasio. The note with it: Moraxella catarrhalis. The procedure:
as §1

Assay [9] has as its system S. aureus Russell. The experiment in a line: in vitro MIC against S. aureus Russell. The following applies: Staphylococcus aureus. The method, then: as §1
For assay [10], the system named is S. agalacticae 2798. The assay is described as follows: in vitro MIC against S. agalacticae 2798. The procedure: as §1
In assay [11] the test system is H. influenzae Ql. The experiment in a line: in vitro MIC against H. influenzae Ql. The note with it: Haemophilus influenzae. The procedure: as §1

As to `CC1(C)S[C@@H]2[C@H](NC(=O)/C(=N\OC3CCCCC3)c3cccc(N)n3)C(=O)N2[C@H]1C(=O)O` [Example 1, Sodium 6-β-[2-(2-aminopyridin-6-yl) 2-(Z)-cyclohexyl-oxiyminoacetamido]penicillinate], the MIC in [1] was 0.5 µg/mL; in assay [2] it was 2 µg/mL; in assay [3] it was 0.5 µg/mL; in assay [4], 0.12 µg/mL; in assay [5], under 0.03 µg/mL; in [6], 1 µg/mL. Besides, the MIC in assay [7] was under 0.03 µg/mL; in assay [8], 0.5 µg/mL; in assay [9], 0.5 µg/mL; in [10] it was 0.25 µg/mL; in assay [11] it was 1 µg/mL.
